Source: doi:10.1101/2024.08.25.609621 (bioRxiv, 2024)
pIC50, pKi: −log10 of the molar value. “And” between values parts separate entries of the source, which are not always exact repeats. Equal values may be shown once. Read-outs that look alike come from different tables or passages of the source.

Tests used:
[1] = target: SARS-CoV-2 NSP3 macrodomain (Mac1) (Severe acute respiratory syndrome coronavirus 2, UniProt P0DTD1); assay: biochemical; type: binding
[2] = target: SARS-CoV-2 NSP3 macrodomain (Mac1), P43 crystal form (Severe acute respiratory syndrome coronavirus 2, UniProt P0DTD1); type: binding
[3] = Single dose, concentration 200 μM, read-out: Average % competition
[4] = preliminary screen, compound at 200 μM, mean of 3-4 technical replicates, read-out: % competition in HTRF assay
[5] = ligand modeling in Mac1 crystal soak
[6] = Single dose, concentration 200 μM, read-out: SARS CoV-2 macrodomain HTRF assay: Average % competition
[7] = dose-response, read-out: SARS CoV-2 macrodomain HTRF assay: IC50
[8] = dose-response, read-out: SARS CoV-2 macrodomain HTRF assay: Ki
[9] = from SARS CoV-2 macrodomain HTRF assay
[10] = ligand modeling in Mac1 crystal structure
[11] = stereoisomer(s) of ligand modeled in Mac1 crystal structure
[12] = stereoisomer(s) modeled in Mac1 crystal structure
[13] = soak concentration 10 mM, DMSO background map

SMILES | inhibition at 200 µM [1, 3] | inhibition at 200 µM [1, 4] | PanDDA run, TFA/DMSO background map: 1-BDC ([2]; crystal soak 10 mM) | PanDDA run, TFA/DMSO background map: Hit ([2]; crystal soak 10 mM) | Number of isomers bound [2, 5] | pKi [1, 8] | Ligand efficiency (binding enery per heavy atom) [1, 9] | also measured
OCC(CN1CCCCC1)Nc1ncnc2[nH]ccc12 (centres unmarked) [AVI-3677] | < 10% | < 10% | 0.18 | TRUE | 1 |  |  | 
CC(C)(C)C1CCC(CO)N(c2ncnc3[nH]ccc23)C1 (centres unmarked) [AVI-3719] |  | 36% |  |  | 1 |  |  | inhibition at 200 µM [1, 6]: 36%
OCC(Nc1ncnc2[nH]ccc12)c1ccccc1 (centres unmarked) [AVI-3715] | 54% | 54% |  |  | 1 |  |  | PanDDA run, TFA/DMSO background map: 1-BDC ([2]; soak concentration 10 mM): 0.09; PanDDA run, TFA/DMSO background map: Hit ([2]; soak concentration 10 mM): TRUE
OCC1CC2(CCCC2)CN1c1ncnc2[nH]ccc12 (centres unmarked) [AVI-3708] |  |  |  |  | 1 | 4.60 | 0.32 | pIC50 [1, 7]: 4.57
CC1CCCC(O)(CNc2ncnc3[nH]ccc23)C1 (centres unmarked) [AVI-4307] |  |  |  |  |  | 4.43 | 0.32 | pIC50 [1, 7]: 4.40; Number of isomers bound [2, 10]: 1
OC1(CNc2ncnc3[nH]ccc23)CCCOC1 (centres unmarked) [AVI-4311] |  |  |  |  |  | 3.80 | 0.29 | pIC50 [1, 7]: 3.77; Number of isomers bound [2, 10]: 1
CN(C)CC(CO)Nc1ncnc2[nH]ccc12 (centres unmarked) [AVI-3671] | < 10% | < 10% | 0.13 | TRUE | 1 |  |  | 
CC(C)(O)[C@H]1CCCN1c1ncnc2[nH]ccc12 [AVI-607, 2-[(2R)-1-{7H-Pyrrolo[2,3-d]pyrimidin-4-yl}pyrrolidin-2-yl]propan-2-ol] |  |  |  |  | 1 | 5.33 | 0.41 | Ligand efficiency ([1]; binding energy per heavy atom): 0.41; pIC50 ([1]; read-out: HTRF IC50): 5.29
OCC(CC1OCCO1)Nc1ncnc2[nH]ccc12 (centres unmarked) [AVI-3658] | 11% | 11% |  |  | 1 |  |  | 
C[C@H]1CC[C@H](CO)N(c2ncnc3[nH]ccc23)C1 (racemic) [AVI-4063] |  |  |  |  |  | 4.28 | 0.33 | pIC50 [1, 7]: 4.25; Number of isomers bound [2, 10]: 1
OCC1CC2(CCCCC2)CN1c1ncnc2[nH]ccc12 (centres unmarked) [AVI-3727] |  | 67% |  |  | 1 |  |  | inhibition at 200 µM [1, 6]: 67%; PanDDA run, TFA/DMSO background map: 1-BDC ([2]; soak concentration 10 mM): 0.25; PanDDA run, TFA/DMSO background map: Hit ([2]; soak concentration 10 mM): TRUE
O=C(O)C(F)(F)F.OCC12CC(CN1c1ncnc3[nH]ccc13)C2 [AVI-3681] |  | 54% | 0.12 | TRUE | 1 |  |  | inhibition at 200 µM [1, 6]: 54%; Isomers modeled [2, 11]: achiral
Cc1nn(C)cc1C1CCC(CO)N1c1ncnc2[nH]ccc12 (centres unmarked) [AVI-3733] |  | 44% |  |  | 1 |  |  | inhibition at 200 µM [1, 6]: 44%
O=C(O)C(F)(F)F.O[C@H]1CCC[C@@H]1Nc1ncnc2[nH]ccc12 [AVI-3639] | 74% | 74% | 0.09 | TRUE | 1 |  |  | 
NC(=O)C1(O)CCN(c2ncnc3[nH]ccc23)C1 (centres unmarked) [AVI-611] | 30% | 30% |  |  | 1 |  |  | Isomers modeled [2, 11]: S,S
CO[C@@H]1C[C@H](CO)N(c2ncnc3[nH]ccc23)C1 [AVI-3656] |  | 41% |  |  | 1 |  |  | inhibition at 200 µM [1, 6]: 41%
OCC(Cc1ccccn1)Nc1ncnc2[nH]ccc12 (centres unmarked) [AVI-3696] | 34% | 34% |  |  | 2 |  |  | Isomers modeled [2, 11]: R,S
Cc1ccccc1CC(CO)Nc1ncnc2[nH]ccc12 (centres unmarked) [AVI-3674] | 32% |  | 0.15 | TRUE | 1 |  |  | 
OCC(CC(O)c1ccccc1)Nc1ncnc2[nH]ccc12 (centres unmarked) [AVI-3642] | < 10% | < 10% | 0.17 | TRUE | 1 |  |  | 
OCC(CC1CCCC1)Nc1ncnc2[nH]ccc12 (centres unmarked) [AVI-3691] | 52% | 53% | 0.1 | TRUE | 1 |  |  | 
CC1CCC(O)(CNc2ncnc3[nH]ccc23)CC1 (centres unmarked) [AVI-4312] |  |  |  |  |  | 4.70 | 0.34 | pIC50 [1, 7]: 4.68; Number of isomers bound [2, 10]: 1; Isomers modeled [2, 12]: rr
OCC(O)C1CCCN1c1ncnc2[nH]ccc12 (centres unmarked) [AVI-3701] |  | 54% |  |  | 1 |  |  | inhibition at 200 µM [1, 6]: 54%; PanDDA run, TFA/DMSO background map: 1-BDC ([2]; soak concentration 10 mM): 0.16; PanDDA run, TFA/DMSO background map: Hit ([2]; soak concentration 10 mM): TRUE
OC1(CNc2ncnc3[nH]ccc23)CCSCC1 [AVI-4319] |  |  |  |  |  | 3.80 | 0.29 | pIC50 [1, 7]: 3.77; Number of isomers bound [2, 10]: 1; Isomers modeled [2, 12]: achiral
OCC(CC1CCC1)Nc1ncnc2[nH]ccc12 (centres unmarked) [AVI-3641] | 32% | 32% | 0.11 | TRUE | 1 |  |  | 
CC(O)C1CCCN1c1ncnc2[nH]ccc12 (centres unmarked) [AVI-4062] |  |  |  |  |  | 4.29 | 0.35 | fold decrease in affinity compared to AVI-607 ([1]; HTRF): ~ 3 fold; pIC50 ([1]; read-out: HTRF IC50): 4.26; Number of isomers bound [2, 10]: 1
O[C@H]1CC[C@@H]2CCN(c3ncnc4[nH]ccc34)[C@@H]21 [AVI-3664] |  |  | 0.15 | TRUE | 1 | 4.59 | 0.35 | pIC50 [1, 7]: 4.55; Isomers modeled [2, 11]: SRS
Cc1c[nH]c2ncnc(NCC3(O)CCC3)c12 [AVI-3571, 1-(((5-methyl-7H-pyrrolo[2,3-d]pyrimidin-4-yl)amino)methyl)cyclobutan-1-ol] |  |  |  |  | 1 |  |  | Hill slope ([1]; HTRF dose-response fit, Mac1): 1.0; Ligand efficiency (binding enery per heavy atom) ([1]; SARS CoV-2 macrodomain HTRF assay): 0.39; Hill slope ([1]; SARS CoV-2 macrodomain HTRF assay, dose-response): 1.0; pIC50 ([1]; SARS CoV-2 macrodomain HTRF assay, dose-response, read-out: IC50): 4.82; pKi ([1]; SARS CoV-2 macrodomain HTRF assay, dose-response, read-out: Ki): 4.85; 1-BDC ([2]; PanDDA background density correction): 0.15; X-ray crystal structure ([2]; X-ray crystal structure determined (TRUE)): TRUE; Pandda run, overall: Modeled ([2]; crystal soak, soak concentration 10 mM): TRUE; Pandda run, overall: Hit ([2]; crystal soak, soak concentration 10 mM, TRUE = ligand hit): TRUE; Total number of conformations ([2]; ligand conformations modeled in Mac1 crystal structure): 2; 2*(1-BDC) (%) ([2]; occupancy estimate from PanDDA 1-BDC): 30%; Binding site ([2]; site of ligand in X-ray crystal structure): Adenosine; PanDDA run, DMSO background map: 1-BDC [2, 13]: 0.15 and 0.2; PanDDA run, DMSO background map: Hit [2, 13]: TRUE; Isomers modeled [2, 11]: achiral,achiral
